# Data as given in ChEMBL document CHEMBL1129689, “Unsaturated side chain beta-11-hydroxyhexahydrocannabinol analogs” (J Med Chem, 1996).
# Columns and labels:
# [1] = target: Cannabinoid receptor 2 (Mus musculus, UniProt P47936); test: Compound was evaluated for its ability to displace specifically bound [3H]CP-55940 from a Cannabinoid receptor 2 enriched mouse spleen preparation.; assay type: tissue-based
# [2] = target: Cannabinoid receptor 1 (Rattus norvegicus, UniProt P20272); test: Compound was evaluated for its ability to displace specifically bound [3H]CP-55940 from a Cannabinoid receptor 1 enriched rat brain microsome preparation.
# Sequence of Cannabinoid receptor 1 (P20272 whole entry): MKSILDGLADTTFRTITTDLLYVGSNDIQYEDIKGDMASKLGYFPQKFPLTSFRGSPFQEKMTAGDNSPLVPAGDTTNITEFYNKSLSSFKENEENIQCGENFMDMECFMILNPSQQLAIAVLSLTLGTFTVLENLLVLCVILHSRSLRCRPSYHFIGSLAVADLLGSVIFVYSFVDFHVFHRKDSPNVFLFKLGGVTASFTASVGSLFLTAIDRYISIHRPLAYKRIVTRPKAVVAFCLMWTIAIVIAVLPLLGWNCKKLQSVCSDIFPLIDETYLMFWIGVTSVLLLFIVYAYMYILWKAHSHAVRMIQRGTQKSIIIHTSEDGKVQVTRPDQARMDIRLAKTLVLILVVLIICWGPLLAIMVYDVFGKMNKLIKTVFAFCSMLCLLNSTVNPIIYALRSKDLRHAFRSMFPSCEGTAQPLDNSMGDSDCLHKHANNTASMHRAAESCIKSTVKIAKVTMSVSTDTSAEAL
# Sequence of Cannabinoid receptor 2 (P47936 whole entry): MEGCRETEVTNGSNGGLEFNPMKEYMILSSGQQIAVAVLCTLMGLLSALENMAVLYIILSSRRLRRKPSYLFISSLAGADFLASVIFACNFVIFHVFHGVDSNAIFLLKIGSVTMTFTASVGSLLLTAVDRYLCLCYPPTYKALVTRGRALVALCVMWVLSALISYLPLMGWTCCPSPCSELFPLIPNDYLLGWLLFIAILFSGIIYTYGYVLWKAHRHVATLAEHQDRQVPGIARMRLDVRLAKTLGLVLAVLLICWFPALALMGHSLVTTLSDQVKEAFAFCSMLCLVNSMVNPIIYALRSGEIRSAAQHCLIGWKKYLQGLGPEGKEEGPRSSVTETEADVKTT
SMILES,Ki [1],Ki [2]
CCCCCCCc1cc(O)c2c(c1)OC(C)(C)[C@@H]1CC[C@@H](CO)C[C@@H]21,14.3 nM,
CCCCC/C=C/c1cc(O)c2c(c1)OC(C)(C)[C@@H]1CC[C@@H](CO)C[C@@H]21,5.3 nM,1.2 nM
CCCCCC#Cc1cc(O)c2c(c1)OC(C)(C)[C@@H]1CC[C@@H](CO)C[C@@H]21,61.6 nM,5.8 nM
CCCCC/C=C\c1cc(O)c2c(c1)OC(C)(C)[C@@H]1CC[C@@H](CO)C[C@@H]21,9.5 nM,0.8 nM
